Measurements as given in US10988477B2 (Merck Patent GmbH, priority 2018, dated 2021).

These molecules were tested against GCN2 kinase (Homo sapiens, UniProt Q9P2K8) (assay: GCN2 enzyme inhibition assay (Transcreener ADP2 fluorescence polarization)). Settings: compounds of Formula II; 280 μM ATP, 4 nM GCN2 kinase.
Type: biochemical
How it was run: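 Inhibition of 4 nM GCN2 was measured with compound up to 8 μM final, ATP 280 μM and (RS)7 peptide 200 μM over a 1 h, 25 °C reaction. ADP FP readout; IC50 and Ki(app) calculated from percent inhibition.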

GCN2 kinase, sequence (Q9P2K8 whole entry): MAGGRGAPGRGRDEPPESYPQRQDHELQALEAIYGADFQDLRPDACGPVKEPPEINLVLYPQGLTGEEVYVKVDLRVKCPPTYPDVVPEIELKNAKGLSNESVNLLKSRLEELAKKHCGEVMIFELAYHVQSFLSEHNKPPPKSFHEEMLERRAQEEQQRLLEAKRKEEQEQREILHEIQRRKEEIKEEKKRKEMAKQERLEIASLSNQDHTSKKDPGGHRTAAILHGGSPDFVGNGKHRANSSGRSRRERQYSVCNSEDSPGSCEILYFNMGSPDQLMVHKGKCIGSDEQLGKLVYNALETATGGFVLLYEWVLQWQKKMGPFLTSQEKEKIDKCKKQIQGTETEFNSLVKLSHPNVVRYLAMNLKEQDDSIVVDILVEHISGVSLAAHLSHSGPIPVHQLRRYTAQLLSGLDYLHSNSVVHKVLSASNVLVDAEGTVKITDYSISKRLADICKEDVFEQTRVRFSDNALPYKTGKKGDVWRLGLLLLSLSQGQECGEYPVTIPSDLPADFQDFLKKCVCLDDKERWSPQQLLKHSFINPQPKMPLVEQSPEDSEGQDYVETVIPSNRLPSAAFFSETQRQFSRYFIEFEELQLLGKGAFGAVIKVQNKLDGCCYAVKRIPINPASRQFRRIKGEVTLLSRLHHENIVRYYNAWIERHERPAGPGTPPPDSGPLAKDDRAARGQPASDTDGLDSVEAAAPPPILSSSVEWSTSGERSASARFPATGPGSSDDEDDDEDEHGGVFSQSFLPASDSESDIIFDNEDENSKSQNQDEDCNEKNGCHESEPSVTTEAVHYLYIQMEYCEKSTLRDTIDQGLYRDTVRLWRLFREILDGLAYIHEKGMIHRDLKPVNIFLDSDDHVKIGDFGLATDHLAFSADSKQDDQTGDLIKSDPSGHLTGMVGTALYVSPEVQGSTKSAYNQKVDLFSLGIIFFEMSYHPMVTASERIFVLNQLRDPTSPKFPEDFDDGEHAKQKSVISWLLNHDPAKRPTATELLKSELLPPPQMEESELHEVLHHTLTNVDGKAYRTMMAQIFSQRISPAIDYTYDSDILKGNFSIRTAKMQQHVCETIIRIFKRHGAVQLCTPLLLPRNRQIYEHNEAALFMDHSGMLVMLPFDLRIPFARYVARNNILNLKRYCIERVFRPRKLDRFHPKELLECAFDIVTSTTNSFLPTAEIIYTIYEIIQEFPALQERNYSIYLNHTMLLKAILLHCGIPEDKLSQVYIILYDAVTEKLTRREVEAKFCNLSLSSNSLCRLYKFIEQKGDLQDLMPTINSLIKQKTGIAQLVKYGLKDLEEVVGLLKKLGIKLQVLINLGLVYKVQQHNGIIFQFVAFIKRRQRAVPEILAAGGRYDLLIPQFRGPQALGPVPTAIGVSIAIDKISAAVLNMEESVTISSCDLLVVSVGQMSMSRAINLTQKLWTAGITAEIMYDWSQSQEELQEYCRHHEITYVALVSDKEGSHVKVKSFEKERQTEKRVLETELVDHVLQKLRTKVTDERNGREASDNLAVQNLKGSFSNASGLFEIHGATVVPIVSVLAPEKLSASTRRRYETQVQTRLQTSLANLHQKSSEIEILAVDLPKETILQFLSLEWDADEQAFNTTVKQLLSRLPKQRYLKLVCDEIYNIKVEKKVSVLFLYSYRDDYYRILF

Ki [µM]	SMILES
< 0.01	CS(=O)(=O)NCC1CN(c2cc(-c3cnc4ccc(C(F)F)nn34)ncn2)C[C@@H]2C[C@H](F)CN12 (stereo partly drawn) [II-568, N-(((7S,8aS)-2-(6-(6-(Difluoromethyl)imidazo[1,2-b]pyridazin-3-yl)pyrimidin-4-yl)-7-fluorooctahydropyrrolo[1,2-a]pyrazin-4-yl)methyl)methanesulfonamide]
0.01 to 1	CC1(C)CN(c2cc(-c3cnc4ccc(C(F)F)nn34)ncn2)CC(CNS(C)(=O)=O)N1 (stereo not drawn) [II-569, N-((4-(6-(6-(Difluoromethyl)imidazo[1,2-b]pyridazin-3-yl)pyrimidin-4-yl)-6,6-dimethylpiperazin-2-yl)methyl)methanesulfonamide]
0.01 to 1	CC1(C)CN(c2cc(-c3cnc4ccc(C(F)F)nn34)ncn2)CC(CNS(C)(=O)=O)N1 (stereo not drawn) [II-570, N-((4-(6-(6-(Difluoromethyl)imidazo[1,2-b]pyridazin-3-yl)pyrimidin-4-yl)-6,6-dimethylpiperazin-2-yl)methyl)methanesulfonamide]
0.01 to 1	CCC(NS(C)(=O)=O)C1CN(c2cc(-c3cnc4ccc(C(F)F)nn34)ncn2)CCO1 (stereo not drawn) [II-571, N-(1-(4-(6-(6-(Difluoromethyl)imidazo[1,2-b]pyridazin-3-yl)pyrimidin-4-yl)morpholin-2-yl)propyl)methanesulfonamide]
0.01 to 1	CCC(NS(C)(=O)=O)C1CN(c2cc(-c3cnc4ccc(C(F)F)nn34)ncn2)CCO1 (stereo not drawn) [II-572, N-(1-(4-(6-(6-(Difluoromethyl)imidazo[1,2-b]pyridazin-3-yl)pyrimidin-4-yl)morpholin-2-yl)propyl)methanesulfonamide]
0.01 to 1	CS(C)(=O)=NCC1CCCN(c2cc(-c3cnc4ccc(C(F)F)nn34)ncn2)C1 (stereo not drawn) [II-573, (((1-(6-(6-(Difluoromethyl)imidazo[1,2-b]pyridazin-3-yl)pyrimidin-4-yl)piperidin-3-yl)methyl)imino)dimethyl-λ^6-sulfanone]
0.01 to 1	CS(C)(=O)=NCC1CCCN(c2cc(-c3cnc4ccc(C(F)F)nn34)ncn2)C1 (stereo not drawn) [II-574, (((1-(6-(6-(Difluoromethyl)imidazo[1,2-b]pyridazin-3-yl)pyrimidin-4-yl)piperidin-3-yl)methyl)imino)dimethyl-λ^6-sulfanone]
0.01 to 1	Cc1c(CNS(C)(=O)=O)cccc1-c1cc(-c2cnc3ccc(C(F)F)nn23)ncn1 [II-575, N-[[3-[6-[6-(Difluoromethyl)imidazo[1,2-b]pyridazin-3-yl]pyrimidin-4-yl]-2-methyl-phenyl]methyl]methanesulfonamide]
< 0.01	CS(=O)(=O)NCc1cccc(-c2cc(-c3cnc4ccc(C(F)F)nn34)ncn2)c1 [II-576, N-[[3-[6-[6-(Difluoromethyl)imidazo[1,2-b]pyridazin-3-yl]pyrimidin-4-yl]phenyl]methyl]methanesulfonamide]
< 0.01	CC1CC(CO)C(C)N(c2cc(-c3cnc4ccc(C(F)F)nn34)ncn2)C1 (stereo not drawn) [II-577, (1-(6-(6-(Difluoromethyl)imidazo[1,2-b]pyridazin-3-yl)pyrimidin-4-yl)-2,5-dimethylpiperidin-3-yl)methanol]
< 0.01	CC1C(N=S(C)(C)=O)CCCN1c1cc(-c2cnc3ccc(C(F)F)nn23)ncn1 (stereo not drawn) [II-578, ((1-(6-(6-(Difluoromethyl)imidazo[1,2-b]pyridazin-3-yl)pyrimidin-4-yl)-2-methylpiperidin-3-yl)imino)dimethyl-λ^6-sulfanone]
0.01 to 1	CC1C(N=S(C)(C)=O)CCCN1c1cc(-c2cnc3ccc(C(F)F)nn23)ncn1 (stereo not drawn) [II-579, ((1-(6-(6-(Difluoromethyl)imidazo[1,2-b]pyridazin-3-yl)pyrimidin-4-yl)-2-methylpiperidin-3-yl)imino)dimethyl-λ^6-sulfanone]
0.01 to 1	CS(=N)(=O)c1cccc(-c2cc(-c3cnc4ccc(C(F)F)nn34)ncn2)c1 (stereo not drawn) [II-580, (3-(6-(6-(Difluoromethyl)imidazo[1,2-b]pyridazin-3-yl)pyrimidin-4-yl)phenyl)(imino)(methyl)-λ^6-sulfanone]
> 1	CC1C(CN=S(C)(C)=O)CCCN1c1cc(-c2cnc3ccc(C(F)F)nn23)ncn1 (stereo not drawn) [II-583, (((1-(6-(6-(Difluoromethyl)imidazo[1,2-b]pyridazin-3-yl)pyrimidin-4-yl)-2-methylpiperidin-3-yl)methyl)imino)dimethyl-λ^6-sulfanone]
0.01 to 1	CC1C(CN=S(C)(C)=O)CCCN1c1cc(-c2cnc3ccc(C(F)F)nn23)ncn1 (stereo not drawn) [II-584, (((1-(6-(6-(Difluoromethyl)imidazo[1,2-b]pyridazin-3-yl)pyrimidin-4-yl)-2-methylpiperidin-3-yl)methyl)imino)dimethyl-λ^6-sulfanone]
< 0.01	CC1CC(CS(C)(=O)=O)C(C)N(c2cc(-c3cnc4ccc(C(F)F)nn34)ncn2)C1 (stereo not drawn) [II-587, 6-(Difluoromethyl)-3-[6-[2,5-dimethyl-3-(methylsulfonylmethyl)-1-piperidyl]pyrimidin-4-yl]imidazo[1,2-b]pyridazine]
0.01 to 1	CC1CC(CS(C)(=O)=O)C(C)N(c2cc(-c3cnc4ccc(C(F)F)nn34)ncn2)C1 (stereo not drawn) [II-588, 6-(difluoromethyl)-3-[6-[2,5-dimethyl-3-(methylsulfonylmethyl)-1-piperidyl]pyrimidin-4-yl]imidazo[1,2-b]pyridazine]

Ki [µM]	SMILES
0.01 to 1	CS(=O)(=O)NC1CN(c2cc(-c3cnc4ccc(C(F)F)nn34)ncn2)CCC1(F)F (stereo not drawn) [II-589, N-(1-(6-(6-(Difluoromethyl)imidazo[1,2-b]pyridazin-3-yl)pyrimidin-4-yl)-4,4-difluoropiperidin-3-yl)methanesulfonamide]
> 1	CC(=O)N1CCN(c2cc(-c3cnc4ccc(Cl)nn34)ncn2)CC1 [II-590, 1-[4-[6-(6-Chloroimidazo[1,2-b]pyridazin-3-yl)pyrimidin-4-yl]piperazin-1-yl]ethanone]
< 0.01	CC1CC(CNS(C)(=O)=O)CN(c2cc(-c3cnc4ccc(C(F)F)nn34)ncn2)C1C (stereo not drawn) [II-591, N-((1-(6-(6-(Difluoromethyl)imidazo[1,2-b]pyridazin-3-yl)pyrimidin-4-yl)-5,6-dimethylpiperidin-3-yl)methyl)methanesulfonamide]
< 0.01	CC1CC(CNS(C)(=O)=O)CN(c2cc(-c3cnc4ccc(C(F)F)nn34)ncn2)C1C (stereo not drawn) [II-592, N-((1-(6-(6-(Difluoromethyl)imidazo[1,2-b]pyridazin-3-yl)pyrimidin-4-yl)-5,6-dimethylpiperidin-3-yl)methyl)methanesulfonamide]
0.01 to 1	CS(C)(=O)=NCc1cccc(-c2cc(-c3cnc4ccc(C(F)F)nn34)ncn2)c1 [II-595, ((3-(6-(6-(Difluoromethyl)imidazo[1,2-b]pyridazin-3-yl)pyrimidin-4-yl)benzyl)imino)dimethyl-λ^6-sulfanone]
0.01 to 1	CS(=O)(=O)NC1CN(c2cc(-c3cnc4ccc(C(F)F)nn34)ncn2)CCC1(F)F (stereo not drawn) [II-596, N-(1-(6-(6-(Difluoromethyl)imidazo[1,2-b]pyridazin-3-yl)pyrimidin-4-yl)-4,4-difluoropiperidin-3-yl)methanesulfonamide]
0.01 to 1	CS(=O)(=O)NC1CN(c2cc(-c3cnc4ccc(C(F)F)nn34)ncn2)CCC1(F)F (stereo not drawn) [II-597, N-(1-(6-(6-(Difluoromethyl)imidazo[1,2-b]pyridazin-3-yl)pyrimidin-4-yl)-4,4-difluoropiperidin-3-yl)methanesulfonamide]
0.01 to 1	CS(=N)(=O)Cc1cccc(-c2cc(-c3cnc4ccc(C(F)F)nn34)ncn2)c1 (stereo not drawn) [II-598, (3-(6-(6-(Difluoromethyl)imidazo[1,2-b]pyridazin-3-yl)pyrimidin-4-yl)benzyl)(imino)(methyl)-λ^6-sulfanone]
0.01 to 1	CS(C)(=O)=Nc1cccc(-c2cc(-c3cnc4ccc(C(F)F)nn34)ncn2)c1 [II-599, [3-[6-[6-(Difluoromethyl)imidazo[1,2-b]pyridazin-3-yl]pyrimidin-4-yl]phenyl]imino-dimethyl-oxo-λ^6-sulfane]
> 1	CC1C(NS(C)(=O)=O)CCCN1c1cc(-c2cnc3ccc(C(F)F)nn23)ncn1 (stereo not drawn) [II-600, N-(1-(6-(6-(Difluoromethyl)imidazo[1,2-b]pyridazin-3-yl)pyrimidin-4-yl)-2-methylpiperidin-3-yl)methanesulfonamide]
< 0.01	CC1C(NS(C)(=O)=O)CCCN1c1cc(-c2cnc3ccc(C(F)F)nn23)ncn1 (stereo not drawn) [II-601, N-(1-(6-(6-(Difluoromethyl)imidazo[1,2-b]pyridazin-3-yl)pyrimidin-4-yl)-2-methylpiperidin-3-yl)methanesulfonamide]
0.01 to 1	CC1C(NS(C)(=O)=O)CCCN1c1cc(-c2cnc3ccc(C(F)F)nn23)ncn1 (stereo not drawn) [II-603, N-(1-(6-(6-(Difluoromethyl)imidazo[1,2-b]pyridazin-3-yl)pyrimidin-4-yl)-2-methylpiperidin-3-yl)methanesulfonamide]
0.01 to 1	C[C@H]1C[C@@H](CS(C)(=N)=O)[C@@H](C)N(c2cc(-c3cnc4ccc(C(F)F)nn34)ncn2)C1 (stereo partly drawn) [II-604, (((2R,3R,5S)-1-(6-(6-(Difluoromethyl)imidazo[1,2-b]pyridazin-3-yl)pyrimidin-4-yl)-2,5-dimethylpiperidin-3-yl)methyl)(imino)(methyl)-λ^6-sulfanone]
0.01 to 1	C[C@H]1C[C@@H](CS(C)(=N)=O)[C@@H](C)N(c2cc(-c3cnc4ccc(C(F)F)nn34)ncn2)C1 (stereo partly drawn) [II-605, (((2R,3R,5S)-1-(6-(6-(Difluoromethyl)imidazo[1,2-b]pyridazin-3-yl)pyrimidin-4-yl)-2,5-dimethylpiperidin-3-yl)methyl)(imino)(methyl)-λ^6-sulfanone]
< 0.01	C[C@@H]1C[C@H](CS(C)(=N)=O)[C@H](C)N(c2cc(-c3cnc4ccc(C(F)F)nn34)ncn2)C1 (stereo partly drawn) [II-606, (((2S,3S,5R)-1-(6-(6-(Difluoromethyl)imidazo[1,2-b]pyridazin-3-yl)pyrimidin-4-yl)-2,5-dimethylpiperidin-3-yl)methyl)(imino)(methyl)-λ^6-sulfanone]
0.01 to 1	CC(C)(O)C1CCCN(c2cc(-c3cnc4ccc(C(F)F)nn34)ncn2)C1 (stereo not drawn) [II-608, 2-(1-(6-(6-(Difluoromethyl)imidazo[1,2-b]pyridazin-3-yl)pyrimidin-4-yl)piperidin-3-yl)propan-2-ol]
